Test results published in ChEMBL document CHEMBL5653631, “A Potent and Selective ULK1 Inhibitor Suppresses Autophagy and Sensitizes Cancer Cells to Nutrient Stress” (iScience, 2018).
Each block holds one compound with its values, some of them ahead of it.

Key:
[1] = target: T1, Eukaryotic translation initiation factor 2-alpha kinase 3 (Homo sapiens) (UniProt Q9NZJ5); experiment: Inhibition of human recombinant PEK at 500 nM in presence of ATP by radiometric assay relative to control
T1 sequence (whole entry): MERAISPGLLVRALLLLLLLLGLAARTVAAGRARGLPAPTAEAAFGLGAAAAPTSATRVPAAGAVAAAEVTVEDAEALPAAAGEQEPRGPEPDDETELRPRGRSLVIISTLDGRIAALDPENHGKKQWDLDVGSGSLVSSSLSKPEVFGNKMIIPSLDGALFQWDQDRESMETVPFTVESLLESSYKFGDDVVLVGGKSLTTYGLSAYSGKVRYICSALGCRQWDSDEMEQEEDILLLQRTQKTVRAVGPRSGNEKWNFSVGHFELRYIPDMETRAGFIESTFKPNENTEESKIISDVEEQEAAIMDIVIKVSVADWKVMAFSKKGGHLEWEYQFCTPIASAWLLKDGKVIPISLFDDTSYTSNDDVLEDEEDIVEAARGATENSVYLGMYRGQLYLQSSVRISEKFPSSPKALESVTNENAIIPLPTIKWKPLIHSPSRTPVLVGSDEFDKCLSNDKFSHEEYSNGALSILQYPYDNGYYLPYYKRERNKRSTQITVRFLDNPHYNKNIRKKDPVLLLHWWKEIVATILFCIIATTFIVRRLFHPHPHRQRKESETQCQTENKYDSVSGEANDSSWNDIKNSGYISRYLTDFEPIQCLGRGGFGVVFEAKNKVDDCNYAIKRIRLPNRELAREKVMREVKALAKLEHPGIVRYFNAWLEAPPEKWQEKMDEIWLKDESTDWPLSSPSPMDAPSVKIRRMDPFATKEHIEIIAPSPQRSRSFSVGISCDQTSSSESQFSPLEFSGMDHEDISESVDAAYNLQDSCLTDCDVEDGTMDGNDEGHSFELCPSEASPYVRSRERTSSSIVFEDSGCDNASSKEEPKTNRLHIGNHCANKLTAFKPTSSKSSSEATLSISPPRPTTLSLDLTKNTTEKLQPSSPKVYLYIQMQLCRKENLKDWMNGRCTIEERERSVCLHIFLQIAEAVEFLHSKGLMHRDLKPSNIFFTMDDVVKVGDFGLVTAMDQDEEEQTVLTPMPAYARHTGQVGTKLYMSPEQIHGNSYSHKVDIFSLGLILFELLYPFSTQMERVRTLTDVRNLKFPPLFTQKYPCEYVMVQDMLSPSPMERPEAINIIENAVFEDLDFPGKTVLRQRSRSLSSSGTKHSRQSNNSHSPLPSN

[2] = target: T2, Serine/threonine-protein kinase STK11 (Homo sapiens) (UniProt Q15831); experiment: Inhibition of human recombinant LKB1 at 500 nM in presence of ATP by radiometric assay relative to control
T2 sequence (whole entry): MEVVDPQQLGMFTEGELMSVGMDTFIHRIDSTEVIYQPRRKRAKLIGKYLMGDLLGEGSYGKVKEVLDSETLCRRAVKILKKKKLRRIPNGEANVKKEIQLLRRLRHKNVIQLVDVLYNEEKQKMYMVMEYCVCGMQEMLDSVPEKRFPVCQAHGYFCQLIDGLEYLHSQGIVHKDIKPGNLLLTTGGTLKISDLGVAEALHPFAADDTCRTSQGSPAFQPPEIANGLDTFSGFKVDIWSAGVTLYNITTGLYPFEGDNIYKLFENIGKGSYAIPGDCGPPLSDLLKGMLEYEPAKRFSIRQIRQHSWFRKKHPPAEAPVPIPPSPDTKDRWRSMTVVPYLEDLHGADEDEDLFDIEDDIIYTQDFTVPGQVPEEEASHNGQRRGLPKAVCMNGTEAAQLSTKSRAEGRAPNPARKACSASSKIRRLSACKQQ

[3] = target: TGF-beta receptor type-2 (Homo sapiens) (UniProt P37173); experiment: Inhibition of human recombinant TGFbR2 at 500 nM in presence of ATP by radiometric assay relative to control
Sequence of TGF-beta receptor type-2 (Homo sapiens) (P37173 whole entry): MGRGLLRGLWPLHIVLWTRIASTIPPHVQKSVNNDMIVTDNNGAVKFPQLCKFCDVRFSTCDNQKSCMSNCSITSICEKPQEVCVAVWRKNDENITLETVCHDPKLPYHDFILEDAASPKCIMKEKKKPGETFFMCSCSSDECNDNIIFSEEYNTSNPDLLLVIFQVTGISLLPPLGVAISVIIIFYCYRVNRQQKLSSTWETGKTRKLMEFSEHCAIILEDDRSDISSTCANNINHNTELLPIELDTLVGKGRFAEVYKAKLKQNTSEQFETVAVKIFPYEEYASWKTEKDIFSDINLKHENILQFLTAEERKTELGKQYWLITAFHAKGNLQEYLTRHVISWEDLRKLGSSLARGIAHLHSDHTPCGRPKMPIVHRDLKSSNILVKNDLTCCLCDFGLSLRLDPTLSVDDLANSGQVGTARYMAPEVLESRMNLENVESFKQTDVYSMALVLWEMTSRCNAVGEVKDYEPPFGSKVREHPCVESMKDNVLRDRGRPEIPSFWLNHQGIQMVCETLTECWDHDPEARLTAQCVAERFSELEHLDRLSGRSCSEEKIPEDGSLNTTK

[4] = target: SRSF protein kinase 1 (Homo sapiens) (UniProt Q96SB4); experiment: Inhibition of human recombinant SRPK1 at 500 nM in presence of ATP by radiometric assay relative to control
Sequence of SRSF protein kinase 1 (Homo sapiens) (Q96SB4 whole entry): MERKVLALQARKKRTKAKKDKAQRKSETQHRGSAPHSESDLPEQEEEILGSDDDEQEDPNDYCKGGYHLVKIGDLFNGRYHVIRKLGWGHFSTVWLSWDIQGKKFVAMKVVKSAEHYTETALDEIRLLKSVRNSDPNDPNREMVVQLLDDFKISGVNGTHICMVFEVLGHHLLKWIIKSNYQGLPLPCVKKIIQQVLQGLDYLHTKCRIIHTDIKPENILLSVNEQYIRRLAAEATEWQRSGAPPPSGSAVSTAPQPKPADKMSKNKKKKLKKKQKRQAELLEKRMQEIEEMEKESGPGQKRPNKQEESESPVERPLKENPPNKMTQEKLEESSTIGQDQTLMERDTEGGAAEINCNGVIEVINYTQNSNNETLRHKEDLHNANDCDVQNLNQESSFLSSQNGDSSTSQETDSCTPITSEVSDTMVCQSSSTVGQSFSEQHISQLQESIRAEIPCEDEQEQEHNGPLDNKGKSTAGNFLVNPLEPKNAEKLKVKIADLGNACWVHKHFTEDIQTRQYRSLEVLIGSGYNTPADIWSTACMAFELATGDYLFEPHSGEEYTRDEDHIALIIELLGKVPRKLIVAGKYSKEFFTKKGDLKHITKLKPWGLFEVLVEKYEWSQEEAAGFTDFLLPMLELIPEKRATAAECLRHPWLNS

[5] = target: T3, Serine/threonine-protein kinase Nek9 (Homo sapiens) (UniProt Q8TD19); experiment: Inhibition of human recombinant NEK9 at 500 nM in presence of ATP by radiometric assay relative to control
T3 sequence (whole entry): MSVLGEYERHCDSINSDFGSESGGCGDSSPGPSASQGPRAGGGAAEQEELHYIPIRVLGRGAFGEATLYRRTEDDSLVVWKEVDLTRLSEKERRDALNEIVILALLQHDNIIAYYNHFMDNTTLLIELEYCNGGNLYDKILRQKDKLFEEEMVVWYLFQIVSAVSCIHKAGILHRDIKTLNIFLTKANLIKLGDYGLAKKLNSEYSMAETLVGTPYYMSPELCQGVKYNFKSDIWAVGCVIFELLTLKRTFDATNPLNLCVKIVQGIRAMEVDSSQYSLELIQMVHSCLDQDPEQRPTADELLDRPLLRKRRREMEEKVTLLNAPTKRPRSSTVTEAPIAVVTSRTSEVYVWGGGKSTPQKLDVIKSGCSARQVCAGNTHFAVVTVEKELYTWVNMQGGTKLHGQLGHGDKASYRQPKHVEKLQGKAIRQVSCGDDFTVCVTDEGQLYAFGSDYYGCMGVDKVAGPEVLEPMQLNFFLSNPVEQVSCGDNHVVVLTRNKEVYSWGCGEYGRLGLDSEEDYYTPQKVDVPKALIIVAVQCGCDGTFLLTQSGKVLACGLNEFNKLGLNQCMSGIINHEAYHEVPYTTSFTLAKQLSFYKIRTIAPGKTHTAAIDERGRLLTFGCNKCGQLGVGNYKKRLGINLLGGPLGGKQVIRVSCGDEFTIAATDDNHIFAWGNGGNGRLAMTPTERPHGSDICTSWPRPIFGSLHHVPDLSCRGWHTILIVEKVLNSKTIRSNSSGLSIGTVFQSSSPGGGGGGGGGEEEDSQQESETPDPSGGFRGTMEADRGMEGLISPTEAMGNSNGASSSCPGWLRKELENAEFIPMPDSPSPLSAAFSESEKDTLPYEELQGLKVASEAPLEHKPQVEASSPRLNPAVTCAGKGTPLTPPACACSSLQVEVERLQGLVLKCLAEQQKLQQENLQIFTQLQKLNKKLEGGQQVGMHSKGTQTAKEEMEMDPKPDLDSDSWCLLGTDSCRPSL

[6] = target: Serine/threonine-protein kinase PLK3 (Homo sapiens) (UniProt Q9H4B4); experiment: Inhibition of human recombinant PLK3 at 15 nM in presence of ATP by radiometric assay relative to control
Sequence of Serine/threonine-protein kinase PLK3 (Homo sapiens) (Q9H4B4 whole entry, looked up): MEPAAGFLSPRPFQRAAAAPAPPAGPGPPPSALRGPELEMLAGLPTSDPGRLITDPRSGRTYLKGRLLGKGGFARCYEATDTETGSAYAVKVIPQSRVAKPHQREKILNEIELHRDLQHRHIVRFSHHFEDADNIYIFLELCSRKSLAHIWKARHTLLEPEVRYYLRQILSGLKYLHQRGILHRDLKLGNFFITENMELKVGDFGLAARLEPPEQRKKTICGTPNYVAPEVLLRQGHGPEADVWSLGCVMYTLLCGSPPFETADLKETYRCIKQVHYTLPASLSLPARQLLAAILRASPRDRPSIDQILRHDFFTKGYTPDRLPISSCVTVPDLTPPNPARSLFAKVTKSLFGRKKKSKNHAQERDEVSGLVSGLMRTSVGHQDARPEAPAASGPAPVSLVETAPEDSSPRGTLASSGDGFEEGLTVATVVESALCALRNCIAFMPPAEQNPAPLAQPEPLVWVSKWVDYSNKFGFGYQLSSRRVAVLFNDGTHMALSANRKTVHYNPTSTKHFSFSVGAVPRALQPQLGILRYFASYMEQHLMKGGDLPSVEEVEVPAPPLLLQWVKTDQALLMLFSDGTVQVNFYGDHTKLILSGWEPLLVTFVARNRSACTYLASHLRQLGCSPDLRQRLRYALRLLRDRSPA

[7] = target: Cyclin-dependent kinase 3 (Homo sapiens) (UniProt Q00526); experiment: Inhibition of human recombinant CDK3 at 15 nM related to control ULK1
Sequence of Cyclin-dependent kinase 3 (Homo sapiens) (Q00526 whole entry, looked up): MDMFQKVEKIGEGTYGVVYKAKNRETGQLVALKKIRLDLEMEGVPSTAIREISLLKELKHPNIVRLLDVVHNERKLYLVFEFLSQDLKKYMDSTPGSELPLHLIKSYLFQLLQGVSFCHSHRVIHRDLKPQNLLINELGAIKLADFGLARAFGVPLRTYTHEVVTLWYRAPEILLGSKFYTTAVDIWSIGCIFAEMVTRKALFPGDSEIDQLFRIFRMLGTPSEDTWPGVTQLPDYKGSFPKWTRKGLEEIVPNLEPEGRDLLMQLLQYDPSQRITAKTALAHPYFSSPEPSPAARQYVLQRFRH

[8] = target: Proto-oncogene tyrosine-protein kinase ROS (Homo sapiens) (UniProt P08922); experiment: Inhibition of human recombinant ROS at 40 nM in presence of ATP by radiometric assay relative to control
Sequence of Proto-oncogene tyrosine-protein kinase ROS (Homo sapiens) (P08922 whole entry): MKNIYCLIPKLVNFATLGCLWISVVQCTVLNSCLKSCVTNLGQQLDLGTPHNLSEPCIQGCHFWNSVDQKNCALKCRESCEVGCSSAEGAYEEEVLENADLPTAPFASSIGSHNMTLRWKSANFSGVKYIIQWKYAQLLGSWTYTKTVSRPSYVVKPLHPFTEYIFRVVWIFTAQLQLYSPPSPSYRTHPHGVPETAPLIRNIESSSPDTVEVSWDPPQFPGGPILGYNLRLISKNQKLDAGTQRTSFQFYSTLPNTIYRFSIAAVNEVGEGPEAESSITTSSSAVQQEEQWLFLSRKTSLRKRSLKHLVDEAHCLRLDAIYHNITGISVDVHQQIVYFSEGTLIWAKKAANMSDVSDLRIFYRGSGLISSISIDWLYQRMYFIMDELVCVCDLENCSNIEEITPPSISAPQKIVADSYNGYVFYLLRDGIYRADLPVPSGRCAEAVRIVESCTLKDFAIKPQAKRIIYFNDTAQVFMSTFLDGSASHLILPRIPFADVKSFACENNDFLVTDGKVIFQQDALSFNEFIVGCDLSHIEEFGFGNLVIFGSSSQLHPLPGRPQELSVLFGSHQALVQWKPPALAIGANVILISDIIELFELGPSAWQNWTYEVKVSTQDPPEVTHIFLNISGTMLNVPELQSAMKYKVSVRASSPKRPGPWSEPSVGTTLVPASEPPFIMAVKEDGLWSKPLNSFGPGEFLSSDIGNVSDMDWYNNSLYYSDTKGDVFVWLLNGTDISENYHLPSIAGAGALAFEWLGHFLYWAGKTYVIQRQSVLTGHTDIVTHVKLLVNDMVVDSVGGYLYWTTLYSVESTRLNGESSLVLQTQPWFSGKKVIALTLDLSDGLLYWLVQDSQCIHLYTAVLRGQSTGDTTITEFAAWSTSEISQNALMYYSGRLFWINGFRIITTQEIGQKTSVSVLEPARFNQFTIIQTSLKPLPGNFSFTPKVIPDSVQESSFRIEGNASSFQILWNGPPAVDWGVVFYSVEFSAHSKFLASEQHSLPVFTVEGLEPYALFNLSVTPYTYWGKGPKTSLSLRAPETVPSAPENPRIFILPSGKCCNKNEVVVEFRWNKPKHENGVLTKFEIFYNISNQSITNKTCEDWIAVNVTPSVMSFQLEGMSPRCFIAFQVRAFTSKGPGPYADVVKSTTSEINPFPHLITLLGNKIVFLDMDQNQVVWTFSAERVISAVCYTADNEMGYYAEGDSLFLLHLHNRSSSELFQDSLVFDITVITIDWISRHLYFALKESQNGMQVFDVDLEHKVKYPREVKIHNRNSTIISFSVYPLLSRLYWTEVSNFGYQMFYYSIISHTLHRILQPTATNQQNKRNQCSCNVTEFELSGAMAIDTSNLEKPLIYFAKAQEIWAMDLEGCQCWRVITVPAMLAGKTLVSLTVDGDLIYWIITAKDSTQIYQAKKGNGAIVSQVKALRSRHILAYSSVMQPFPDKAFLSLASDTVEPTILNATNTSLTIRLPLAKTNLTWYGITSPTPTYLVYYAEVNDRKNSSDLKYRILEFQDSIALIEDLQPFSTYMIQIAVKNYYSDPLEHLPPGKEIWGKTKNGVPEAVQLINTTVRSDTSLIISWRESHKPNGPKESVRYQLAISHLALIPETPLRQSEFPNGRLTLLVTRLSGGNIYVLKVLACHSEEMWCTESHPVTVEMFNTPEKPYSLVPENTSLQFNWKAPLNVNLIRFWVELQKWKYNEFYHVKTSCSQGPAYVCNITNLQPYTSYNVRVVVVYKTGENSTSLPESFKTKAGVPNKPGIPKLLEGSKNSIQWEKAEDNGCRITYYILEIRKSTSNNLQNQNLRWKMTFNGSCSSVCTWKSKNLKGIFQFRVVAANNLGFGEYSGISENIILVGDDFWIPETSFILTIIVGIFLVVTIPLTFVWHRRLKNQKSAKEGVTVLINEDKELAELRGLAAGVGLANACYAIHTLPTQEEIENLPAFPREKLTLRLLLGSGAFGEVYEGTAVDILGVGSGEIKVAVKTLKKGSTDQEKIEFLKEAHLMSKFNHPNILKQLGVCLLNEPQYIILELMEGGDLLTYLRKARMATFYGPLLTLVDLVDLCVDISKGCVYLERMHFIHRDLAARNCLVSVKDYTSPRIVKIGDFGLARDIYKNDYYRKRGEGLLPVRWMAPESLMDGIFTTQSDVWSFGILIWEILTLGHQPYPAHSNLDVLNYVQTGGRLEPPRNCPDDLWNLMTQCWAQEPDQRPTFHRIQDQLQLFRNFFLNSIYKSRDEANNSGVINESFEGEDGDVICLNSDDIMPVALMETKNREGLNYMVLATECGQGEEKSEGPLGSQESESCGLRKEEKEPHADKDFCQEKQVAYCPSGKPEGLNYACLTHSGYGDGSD

inhibition [1]: 0%
inhibition [2]: 12%
inhibition [3]: 2%
inhibition [4]: 10%
Structure (SMILES): CNC(=O)c1ccccc1Oc1nc(Nc2cc(OC)c(OC)c(OC)c2)ncc1Br
inhibition [5]: 0%

inhibition [6]: 3%
fold change (FC) [7]: 0.06
Structure (SMILES): CC(C)[C@H](NC(=O)c1cc(-c2cnn3cc(-c4ccc(OCCN5CCCCC5)cc4)cnc23)cs1)C(F)(F)F

inhibition [8]: 0%
Structure (SMILES): O=C(N[C@@H](C1CC1)C(F)(F)F)c1cc(-c2cnn3cc(-c4ccc(F)cc4)cnc23)cs1
